From patent EP4737450A1 (Longwood Pharmaceuticals (Hangzhou) Co., Ltd, priority 2023, dated 2025)
pIC50: −log10 of the molar value.

These compounds were tested against T1, plasma kallikrein (PKa) (Homo sapiens, UniProt P03952) (assay: Inhibitory activity against plasma kallikrein in vitro (fluorescence intensity enzyme assay, Pro-Phe-Arg-AMC substrate)). Conditions: PKa IC50, plasma kallikrein enzyme assay, Pro-Phe-Arg-AMC substrate.
T1 construct: purchased R & D 2497-SE
T1 sequence (P03952 391-638 limits assumed): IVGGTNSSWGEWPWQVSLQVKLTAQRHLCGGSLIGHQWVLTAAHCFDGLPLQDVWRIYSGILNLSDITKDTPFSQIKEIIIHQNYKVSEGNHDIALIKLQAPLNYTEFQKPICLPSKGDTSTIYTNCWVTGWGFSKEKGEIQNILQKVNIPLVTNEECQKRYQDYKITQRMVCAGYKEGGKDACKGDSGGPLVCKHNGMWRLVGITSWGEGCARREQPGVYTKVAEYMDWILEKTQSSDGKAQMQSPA
T1 sequence (P03952 20-390 partner limits assumed): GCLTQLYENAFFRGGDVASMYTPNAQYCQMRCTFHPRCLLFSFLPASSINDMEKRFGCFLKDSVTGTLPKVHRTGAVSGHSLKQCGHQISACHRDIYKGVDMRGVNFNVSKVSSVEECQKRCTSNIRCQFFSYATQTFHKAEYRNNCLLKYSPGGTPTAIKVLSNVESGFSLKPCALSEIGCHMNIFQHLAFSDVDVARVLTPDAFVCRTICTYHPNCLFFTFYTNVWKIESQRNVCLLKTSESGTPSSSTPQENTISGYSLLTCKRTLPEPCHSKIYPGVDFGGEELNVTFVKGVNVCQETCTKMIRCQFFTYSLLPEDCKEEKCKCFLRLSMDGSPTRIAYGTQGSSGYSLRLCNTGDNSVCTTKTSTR
Format: biochemical
Protocol: Test of the inhibitory activities of the compounds of the present invention against plasma kallikrein (PKa), KLK1 and FXIa in vitro.
The final concentrations of enzyme protein and Pro-Phe-Arg-AMC in the reaction mixture were 10 nM and 60 µM, respectively. The starting concentration of the positive reference substance Avoralstat was 100 nM, 3-fold dilution, 10 + 0 dose. 0.05 µL of compound in 100% DMSO was delivered to a 384-well plate by an acoustic liquid delivery technique (Echo665; nanoliter range). Compound duplex test. […] IC50 values and nonlinear regression curve fitting were obtained using GraphPad Prism software.
`COCc1nn(Cc2ccc(Cn3ccccc3=O)cc2)cc1C(=O)NCc1nccc(SC)c1F` [Compound 132] gave a pIC50 of 8.14.

Same assay, conditions: plasma kallikrein enzyme assay, Pro-Phe-Arg-AMC substrate; read-out: PKa IC50
`N#Cc1cc(N2CC3C(C2)C3(F)F)ccc1Cn1cnc(C(=O)NC2CCc3cc(N)ncc32)n1` (single isomer, unassigned) [Compound 53] gave a pIC50 of less than 7.00. Work on `Cc1cc(N)nc(C)c1CNC(=O)c1nnc(Cc2cn3cc(C4CC4)ccc3n2)o1` [Compound 17] yielded a pIC50 of 7.44. `COCc1nn(Cc2cn3cc(C4CC4)ccc3n2)cc1C(=O)NCc1c(C)cc(N)nc1C` [Compound 21] showed a pIC50 of 8.53. For `Cc1nc(N)nc(C)c1CNC(=O)c1ncn(Cc2ccc(Cn3cc(F)ccc3=O)cc2)n1` [Compound 26], the pIC50 was 6.16. For `Cc1cc(N)nc(C)c1CNC(=O)c1nc(Cc2ccc(Cn3ccccc3=O)cc2)nn1C` [Compound 29], the pIC50 was less than 6.00. `Nc1nnc(CNC(=O)c2cnn(Cc3ccc(Cn4ccccc4=O)cc3)c2)s1` [Compound 30] was tested, and the pIC50 was less than 6.00. Compound `Cc1nc(N)ncc1CNC(=O)c1ncn(Cc2ccc(Cn3cc(F)ccc3=O)cc2)n1` [Compound 31] has a pIC50 of less than 6.00. `COc1ccnc(CNC(=O)c2ncn(Cc3ccc(Cn4cc(F)ccc4=O)cc3)n2)c1F` [Compound 32] showed a pIC50 of less than 7.00. Work on `Nc1ncc(CNC(=O)c2cnn(Cc3ccc(Cn4ccccc4=O)cc3)c2)s1` [Compound 36] yielded a pIC50 of 6.28. For `Nc1cc2c(cn1)[C@H](NC(=O)c1ncn(Cc3cn4cc(C5CC5)ccc4n3)n1)CC2` [Compound 45], the pIC50 was less than 7.00. With `Nc1cc2c(cn1)[C@@H](NC(=O)c1ncn(Cc3cn4cc(C5CC5)ccc4n3)n1)CC2` [Compound 46] the pIC50 was less than 7.00. In the case of `Nc1cc2c(cn1)C(NC(=O)c1ncn(Cc3c(F)c(F)c(Cn4ccccc4=O)c(F)c3F)n1)CC2` (stereo not shown) [Compound 51], the pIC50 was less than 7.00. For `Cn1cnc2c1CC[C@H]2NC(=O)c1nn(Cc2ccc(Cn3ccccc3=O)cc2)cc1C(F)F` [Compound 58], the pIC50 was 7.76. `COCc1cn(Cc2ccc(Cn3ccccc3=O)cc2)nc1C(=O)N[C@@H]1CCc2c1ncn2C` [Compound 59] was tested, and the pIC50 was less than 7.00. In the case of `Cc1cc(N)nc(C)c1CNC(=O)c1ncn(Cc2ccc(-n3ccccc3=O)cc2)n1` [Compound 63], the pIC50 was 7.78. Compound `COCc1nn(Cc2ccc(CN3CCCCC3=O)cc2)cc1C(=O)NCc1nccc(OC)c1F` [Compound 77] has a pIC50 of 7.20. `Cc1cc(N)nc(C)c1CNC(=O)c1ncn(Cc2ccc(CN3CCCCC3=O)cc2)n1` [Compound 78] showed a pIC50 of 8.43. `Cn1cnc2c1CC[C@H]2NC(=O)c1ncn(Cc2ccc(CN3CCCCC3=O)cc2)n1` [Compound 79] was tested, and the pIC50 was less than 7.00. Compound `C#Cc1nn(Cc2ccc(Cn3ccccc3=O)cc2)cc1C(=O)NCc1c(C)cc(N)nc1C` [Compound 81] has a pIC50 of 7.11. Compound `Nc1cc2c(cn1)[C@@H](NC(=O)c1ncn(Cc3ccc(Cn4ccccc4=O)cc3)n1)CO2` [Compound 82] has a pIC50 of 7.58. `Cc1cc(N)nc(C)c1CNC(=O)c1nc(Cc2ccc(Cn3ccccc3=O)cc2)ns1` [Compound 84] showed a pIC50 of 7.19. Compound `C#Cc1nn(Cc2ccc(Cn3ccccc3=O)cc2)cc1C(=O)NCc1nccc(OC)c1F` [Compound 85] has a pIC50 of 7.23. `COCc1nn(Cc2ccc(N3CC4C(C3)C4(F)F)cc2C#N)cc1C(=O)NCc1cc2cnccc2[nH]1` (stereo not shown) [Compound 86] showed a pIC50 of 7.67. With `COc1ccnc(CNC(=O)c2cc(Cc3ccc(Cn4ccccc4=O)cc3)cn2C)c1F` [Compound 88] the pIC50 was 7.70. In the case of `COCc1nn(Cc2ccc(N3CCOCC3=O)cc2)cc1C(=O)NCc1nccc(OC)c1F` [Compound 89], the pIC50 was less than 7.00. Compound `COc1ccnc(CNC(=O)c2cn(Cc3ccc(Cn4ccccc4=O)cc3)nc2C(F)(F)F)c1F` [Compound 90] has a pIC50 of 8.51. With `COCc1nn(Cc2ccc(CC3CC3)cc2)cc1C(=O)NCc1nccc(OC)c1F` [Compound 91, 1-(4-(cyclopropylmethyl)benzyl)-N-((3-fluoro-4-methoxypyridin-2-yl)methyl)-3-(methoxymethyl)-1H-pyrazole-4-carboxamide] the pIC50 was less than 7.00. Compound `COCc1nn(Cc2ccc(-n3ccccc3=O)cc2)cc1C(=O)NCc1nccc(OC)c1F` [Compound 92] has a pIC50 of less than 7.00. Work on `COCc1nn(Cc2ccc(-n3ccccc3=O)cc2)cc1C(=O)NC1CCc2c1ncn2C` (stereo not shown) [Compound 96] yielded a pIC50 of less than 7.00. Work on `COCc1nn(Cc2ccc(-n3ccccc3=O)cc2)cc1C(=O)NCc1cc2ccncc2[nH]1` [Compound 97] yielded a pIC50 of 6.30. In the case of `COCc1nn(Cc2ccc(Cn3ccc4ncccc43)cc2)cc1C(=O)NCc1nccc(OC)c1F` [Compound 98], the pIC50 was 6.61. With `Cc1cc(Cl)nc(C)c1CNC(=O)c1ncn(Cc2ccc(Cn3ccccc3=O)cc2)n1` [Compound 100] the pIC50 was less than 7.00. `COCc1nn(Cc2ccc(CN3CCCCCC3)cc2)cc1C(=O)NCc1nccc(OC)c1F` [Compound 102] was tested, and the pIC50 was less than 7.00. `COCc1nn(Cc2ccc(CN3CC(F)(F)C3)cc2)cc1C(=O)NCc1nccc(OC)c1F` [Compound 103] was tested, and the pIC50 was less than 7.00. `COCc1nn(Cc2ccc(N3CC4C(C3)C4(F)F)cc2C#N)cc1C(=O)NCc1cn2c(n1)CNCC2` (stereo not shown) [Compound 104] gave a pIC50 of less than 7.00. `COCc1nn(Cc2ccc(-n3ccccc3=O)cc2)cc1C(=O)NCc1nc2c(s1)CNCC2` [Compound 107] gave a pIC50 of less than 7.00. In the case of `COCc1nn(Cc2ccc(Cn3ccccc3=O)cc2)cc1C(=O)NCc1cc2cnccc2[nH]1` [Compound 108], the pIC50 was 7.43. With `COCc1nn(Cc2ccc(N3CCOCC3=O)cc2)cc1C(=O)NCc1cn2c(n1)CNCC2` [Compound 112] the pIC50 was less than 7.00. `COCc1nn(Cc2ccc(Cn3ccccc3=O)cc2)cc1C(=O)NCc1c(C)cncc1C` [Compound 114] gave a pIC50 of less than 7.00. With `O=C(NCc1cc2cnccc2[nH]1)c1cn(Cc2ccc(Oc3ccccc3)cc2)nc1C(F)(F)F` [Compound 115] the pIC50 was less than 7.00. In the case of `COCc1nn(Cc2ccc(Oc3ccccc3)cc2)cc1C(=O)NCc1nccc(OC)c1F` [Compound 117], the pIC50 was less than 6.00. Compound `COCc1nn(Cc2ccc(Cn3ccccc3=O)cc2)cc1C(=O)NCc1cn2ccc(Cl)c(F)c2n1` [Compound 120] has a pIC50 of less than 6.00. With `O=C(NCc1cc2cnccc2[nH]1)c1nc(Cc2ccc(Cn3ccccc3=O)cc2)ns1` [Compound 122] the pIC50 was 6.91. `O=C(NCc1cc2cnccc2[nH]1)c1cn(Cc2ccc(Cn3ccccc3=O)cc2)nc1C(F)(F)F` [Compound 123] gave a pIC50 of 7.53. `COc1ccnc(CNC(=O)c2cn(Cc3ccc(CN4CC(F)(F)C4)cc3)nc2C(F)(F)F)c1F` [Compound 124] was tested, and the pIC50 was less than 6.00. With `COCc1nn(Cc2ccc(Oc3ccccc3)cc2)cc1C(=O)NCc1ccc2nccn2c1` [Compound 125] the pIC50 was 6.48. For `COCc1nn(Cc2ccc(Cn3ccccc3=O)cc2)cc1C(=O)NCc1ccc2nccn2c1` [Compound 126], the pIC50 was 6.64. `COCc1nn(Cc2ccc(N3CC4C(C3)C4(F)F)cc2C#N)cc1C(=O)NCc1nc2c(s1)CNCC2` (stereo not shown) [Compound 129] was tested, and the pIC50 was 6.39. Compound `CCn1cnc2c1CC[C@@H]2NC(=O)c1cn(Cc2ccc(Cn3ccccc3=O)cc2)nc1COC` [Compound 131] has a pIC50 of 7.55. For `N=C(N)c1ccc(CNC(=O)c2cn(Cc3ccc(Oc4ccccc4)cc3)nc2C(F)(F)F)cc1` [Compound 134], the pIC50 was 8.35. Work on `COCc1nn(Cc2ccc(Cn3ccccc3=O)cc2)cc1C(=O)NCc1cc2ccncc2n1C` [Compound 135] yielded a pIC50 of 6.88. In the case of `COCc1nn(Cc2ccc(Cn3ccccc3=O)cc2)cc1C(=O)NCc1[nH]c2cnccc2c1Cl` [Compound 136], the pIC50 was 7.44. With `COCc1nn(Cc2ccc(CN3C(=O)C4(CC4)c4ccc(F)cc43)cc2)cc1C(=O)NCc1nccc(OC)c1F` [Compound 138] the pIC50 was less than 6.00. With `COCc1nn(Cc2ccc(Cn3ccccc3=O)cc2)cc1C(=O)NCc1cc2cnccc2n1C` [Compound 139] the pIC50 was 7.90.
